# ± gives the expanded uncertainty stated by the source.
# Details: Crystal; visual observation
smiles,measurement,value
O=C(O)[C@@H]1Cc2ccccc2N1 [(S)-indoline-2-carboxylic acid],Normal melting temperature,177.00 ± 0.5 °C
